What all share (type): cell-based
Test [1] concerns HepG2 cells. Put plainly: MTT antihepatoma assay, HepG2 cells. The following applies: Homo sapiens, 48 h incubation. The procedure: (§1) • (1). […] The plates were measured at 490 nm using a microplate reader (BIO-RAD, USA). The inhibitory ratio was calculated as [(A490 negative−A490 treated)/(A490 negative−A490 blank)]×100%. The IC50 values were calculated with GraphPad Prism 5 (GraphPad Software, California, USA). Repeat the experiment three times.
(Tetrazolium dyes change colour on reduction, which living cells bring about.)

In test [2] the test system is Huh7 cells. The test is described as follows: MTT antihepatoma assay, Huh7 cells. The following applies: Homo sapiens, Huh-7, 48 h incubation. On the procedure:
as §1

Test [3] deals with SK-Hep-1 cells. Put plainly: MTT antihepatoma assay, SK-Hep-1 cells. The note with it: Homo sapiens, SK-HEP1, 48 h incubation. On the procedure:
as §1

Results on 5 compounds are retold here after patent publication US20240409552A1, “GUAIANOLIDE OLIGOMERS, PREPARATION METHOD AND APPLICATION” (KUNMING INSTITUTE OF BOTANY, CHINESE ACADEMY OF SCIENCES, priority 2021, published 2024).

What is called IC50 is the concentration needed to halve the response being measured. High values mean lower potency, low ones higher potency. `C=C1C(=O)O[C@@H]2C3=C([C@H]4C[C@]3(C)[C@]3(C4)C(=O)O[C@H]4[C@H]3CCC(C)=C3C[C@H]5O[C@@]5(C)[C@@H]34)[C@@](C)(O)CC[C@@H]12` [Compound 1]: the results for the IC50 in test [1], in test [2] and in test [3] were 12.8 µM, 20.2 µM and 11.2 µM, respectively.
In the case of `C=C1C(=O)O[C@@H]2C3=C([C@H]4C[C@]3(C)[C@]3(C4)C(=O)O[C@@H]4C5C(=C(C)CC[C@H]43)CC[C@@]5(C)O)[C@@](C)(O)CC[C@@H]12` (stereo partly drawn) [Compound 2], the IC50 in test [1] turned out to be 5.9 µM; in test [2], 11.9 µM; in test [3], 16.5 µM.
The corresponding values for `C=C1C(=O)O[C@@H]2C3=C([C@H]4C[C@]3(C)[C@]3(C4)C(=O)O[C@@H]4C5=C([C@H]6C[C@]5(C)[C@]5(C6)C(=O)O[C@@H]6[C@H]7C(C)=CC[C@@]78O[C@@]8(C)CC[C@H]65)[C@@](C)(O)CC[C@H]43)[C@@](C)(O)CC[C@@H]12` [Compound 3] are 6.2 µM, 6.8 µM and 7.2 µM.
The matching figures for `C=C1C(=O)O[C@@H]2C3=C([C@H]4C[C@]3(C)[C@]3(C4)C(=O)O[C@@H]4C5=C([C@H]6C[C@]5(C)[C@]5(C6)C(=O)O[C@@H]6C7=C([C@H]8C[C@]7(C)[C@]7(C8)C(=O)O[C@@H]8[C@H]9C(C)=CC[C@@]9%10O[C@@]%10(C)CC[C@@H]87)[C@@](C)(O)CC[C@H]65)[C@@](C)(O)CC[C@H]43)[C@@](C)(O)CC[C@@H]12` [Compound 4]: 14.7 µM, 10.9 µM and 7.9 µM.
The matching figures for `CNC(=O)c1cc(Oc2ccc(NC(=O)Nc3ccc(Cl)c(C(F)(F)F)c3)cc2)ccn1` [sorafenib, reference compound]: 12.8 µM, 10.9 µM and 22.5 µM.
